Laboratory results from ChEMBL document CHEMBL1201862, “PubChem BioAssay data set” (2004).
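Compound exposure: 48 hours, 5 concentrations, 96-well plates. Here, GI50 denotes the concentration required for 50% inhibition of growth.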 Active and inactive are the calls of the source. No stated cut-off is given here; in the data, active = GI50 up to about 1.1 µM and inactive = higher.

Experiments:
Test in all cases: DTP human tumour cell line panel, 48 h
NCI-H226 = tested on: NCI-H226
HCC 2998 = tested on: HCC 2998
SNB-78 = tested on: SNB-78
UO-31 = tested on: UO-31
NCI-H23 = tested on: NCI-H23
HCT-15 = tested on: HCT-15
SNB-75 = tested on: SNB-75
UACC-257 = tested on: UACC-257
U-251 = tested on: U-251
M14 = tested on: M14
HOP-18 = tested on: HOP-18
CCRF-CEM = tested on: CCRF-CEM
MOLT-4 = tested on: MOLT-4
A549 = tested on: A549
KM-20L2 = tested on: KM-20L2
LXFL 529 = tested on: LXFL 529
HT-29 = tested on: HT-29
SN12C = tested on: SN12C
DMS-114 = tested on: DMS-114
A498 = tested on: A498
SF-539 = tested on: SF-539
SF-268 = tested on: SF-268
Malme-3M = tested on: Malme-3M
HOP-92 = tested on: HOP-92
HL-60 = tested on: HL-60
RXF 631 = tested on: RXF 631
ACHN = tested on: ACHN
OVCAR-5 = tested on: OVCAR-5
M19-MEL = tested on: M19-MEL
786-0 = tested on: 786-0
KM12 = tested on: KM12
SF-295 = tested on: SF-295
SK-MEL-28 = tested on: SK-MEL-28
IGROV-1 = tested on: IGROV-1
TK-10 = tested on: TK-10
OVCAR-4 = tested on: OVCAR-4
RXF 393 = tested on: RXF 393
DLD-1 = tested on: DLD-1
SK-OV-3 = tested on: SK-OV-3
OVCAR-8 = tested on: OVCAR-8
NCI-H522 = tested on: NCI-H522
EKVX = tested on: EKVX
CAKI-1 = tested on: CAKI-1
OVCAR-3 = tested on: OVCAR-3
LOX IMVI = tested on: LOX IMVI
K562 = tested on: K562
SNB-19 = tested on: SNB-19
SK-MEL-2 = tested on: SK-MEL-2
NCI-H460 = tested on: NCI-H460
HCT-116 = tested on: HCT-116
UACC-62 = tested on: UACC-62
HOP-62 = tested on: HOP-62
SK-MEL-5 = tested on: SK-MEL-5
SW-620 = tested on: SW-620
RPMI-8226 = tested on: RPMI-8226
NCI/ADR-RES = tested on: NCI/ADR-RES
MDA-N = tested on: MDA-N
DMS-273 = tested on: DMS-273
COLO 205 = tested on: COLO 205
MDA-MB-435 = tested on: MDA-MB-435
DU-145 = tested on: DU-145
BT-549 = tested on: BT-549
MCF7 = tested on: MCF7
MDA-MB-231 = tested on: MDA-MB-231
Hs-578T = tested on: Hs-578T
XF498 = tested on: XF498
T47D = tested on: T47D
PC-3 = tested on: PC-3
SR = tested on: SR

With `CCN(CC)CCOC(=O)c1ccc(N)cc1.CCOC(=O)Nc1ccc(S(=O)(=O)OC)cc1.CCOC(=O)Nc1ccc(S(=O)(=O)OC)cc1.Nc1ccc(C(=O)O)c(O)c1` the GI50 (NCI-H226) was > 100 µM (inactive), the GI50 (HCC 2998) was > 100 µM (inactive) and the GI50 (SNB-78) was > 100 µM (inactive). For the same compound, the GI50 (UO-31) was > 100 µM (inactive), the GI50 (NCI-H23) was > 100 µM (inactive) and the GI50 (HCT-15) was greater than 100 µM. The GI50 (SNB-75) was 40.2 µM (inactive), the GI50 (UACC-257) was > 100 µM (inactive) and the GI50 (U-251) was > 100 µM (inactive). The GI50 (M14) was > 100 µM (inactive), the GI50 (HOP-18) was > 100 µM (inactive) and the GI50 (CCRF-CEM) was > 100 µM (inactive). For the same compound, the GI50 (MOLT-4) was > 100 µM (inactive), the GI50 (A549) was > 100 µM (inactive) and the GI50 (KM-20L2) was > 100 µM (inactive). The GI50 (LXFL 529) was > 100 µM (inactive), the GI50 (HT-29) was > 100 µM (inactive) and the GI50 (SN12C) was > 100 µM (inactive). The GI50 (DMS-114) was > 100 µM (inactive), the GI50 (A498) was > 100 µM (inactive) and the GI50 (SF-539) was > 100 µM (inactive). For the same compound, the GI50 (SF-268) was > 100 µM (inactive), the GI50 (Malme-3M) was > 100 µM (inactive) and the GI50 (HOP-92) was > 100 µM (inactive). For the same compound, the GI50 (HL-60) was > 100 µM (inactive), the GI50 (RXF 631) was > 100 µM (inactive) and the GI50 (ACHN) was > 100 µM (inactive). For the same compound, the GI50 (OVCAR-5) was > 100 µM (inactive), the GI50 (M19-MEL) was > 100 µM (inactive) and the GI50 (786-0) was > 100 µM (inactive). For the same compound, the GI50 (KM12) was > 100 µM (inactive), the GI50 (SF-295) was > 100 µM (inactive) and the GI50 (SK-MEL-28) was > 100 µM (inactive). For the same compound, the GI50 (IGROV-1) was > 100 µM (inactive), the GI50 (TK-10) was > 100 µM (inactive) and the GI50 (OVCAR-4) was > 100 µM (inactive). For the same compound, the GI50 (RXF 393) was > 100 µM (inactive), the GI50 (DLD-1) was > 100 µM (inactive) and the GI50 (SK-OV-3) was > 100 µM (inactive). The GI50 (OVCAR-8) was > 100 µM (inactive), the GI50 (NCI-H522) was > 100 µM (inactive) and the GI50 (EKVX) was > 100 µM (inactive). The GI50 (CAKI-1) was > 100 µM (inactive), the GI50 (OVCAR-3) was > 100 µM (inactive) and the GI50 (LOX IMVI) was > 100 µM (inactive). For the same compound, the GI50 (K562) was > 100 µM (inactive), the GI50 (SNB-19) was > 100 µM (inactive) and the GI50 (SK-MEL-2) was > 100 µM (inactive). For the same compound, the GI50 (NCI-H460) was > 100 µM (inactive), the GI50 (HCT-116) was > 100 µM (inactive) and the GI50 (UACC-62) was > 100 µM (inactive). The GI50 (HOP-62) was > 100 µM (inactive), the GI50 (SK-MEL-5) was > 100 µM (inactive) and the GI50 (SW-620) was > 100 µM (inactive).
`Cc1cc(N(CCOS(C)(=O)=O)CCOS(C)(=O)=O)ccc1/C=N/c1ccc(-c2nc(Cc3ccccc3)sc2C)cc1` was tested, and the GI50 (NCI-H226) was 2.2 µM (inactive), the GI50 (HCC 2998) was 3.77 µM (inactive) and the GI50 (SNB-78) was 32.9 µM (inactive). For the same compound, the GI50 (UO-31) was 3.71 µM (inactive), the GI50 (RPMI-8226) was 3.82 µM (inactive) and the GI50 (NCI-H23) was 2.91 µM (inactive). The GI50 (HCT-15) was 11.2 µM, the GI50 (NCI/ADR-RES) was 10.6 µM (inactive) and the GI50 (SNB-75) was 1.66 µM (inactive). The GI50 (UACC-257) was 12.1 µM (inactive), the GI50 (U-251) was 6.64 µM (inactive) and the GI50 (MDA-N) was 11.8 µM (inactive). For the same compound, the GI50 (M14) was 4.86 µM (inactive), the GI50 (HOP-18) was 6.64 µM (inactive) and the GI50 (CCRF-CEM) was 0.471 µM (active). The GI50 (MOLT-4) was 1.23 µM (inactive), the GI50 (A549) was 1.33 µM (inactive) and the GI50 (KM-20L2) was 7.19 µM (inactive). For the same compound, the GI50 (DMS-273) was 1.87 µM (inactive), the GI50 (LXFL 529) was 16.6 µM (inactive) and the GI50 (HT-29) was 5.3 µM (inactive). For the same compound, the GI50 (SN12C) was 5.4 µM (inactive), the GI50 (DMS-114) was 7.91 µM (inactive) and the GI50 (A498) was 1.55 µM (inactive). For the same compound, the GI50 (SF-539) was 1.8 µM (inactive), the GI50 (SF-268) was 3.99 µM (inactive) and the GI50 (Malme-3M) was 11.4 µM (inactive). The GI50 (COLO 205) was 1.43 µM (inactive), the GI50 (HOP-92) was 8.71 µM (inactive) and the GI50 (HL-60) was 1.17 µM (inactive). The GI50 (MDA-MB-435) was 11 µM (inactive), the GI50 (ACHN) was 0.404 µM (active) and the GI50 (OVCAR-5) was 11.2 µM (inactive). For the same compound, the GI50 (M19-MEL) was 10 µM (inactive), the GI50 (DU-145) was 0.834 µM (active) and the GI50 (786-0) was 1.28 µM (inactive). For the same compound, the GI50 (KM12) was 14.2 µM (inactive), the GI50 (SF-295) was 1.57 µM (inactive) and the GI50 (SK-MEL-28) was 14.2 µM (inactive). For the same compound, the GI50 (IGROV-1) was 10.7 µM (inactive), the GI50 (TK-10) was 4.6 µM (inactive) and the GI50 (OVCAR-4) was 15.5 µM (inactive). For the same compound, the GI50 (RXF 393) was 0.933 µM (active), the GI50 (DLD-1) was 12.8 µM (inactive) and the GI50 (BT-549) was 9.12 µM (inactive). For the same compound, the GI50 (MCF7) was 3.52 µM (inactive), the GI50 (SK-OV-3) was 0.494 µM (active) and the GI50 (OVCAR-8) was 7.53 µM (inactive). The GI50 (MDA-MB-231) was 15.3 µM (inactive), the GI50 (NCI-H522) was 0.233 µM (active) and the GI50 (EKVX) was 4.27 µM (inactive). The GI50 (CAKI-1) was 1.23 µM (inactive), the GI50 (OVCAR-3) was 2.87 µM (inactive) and the GI50 (Hs-578T) was 10.6 µM (inactive). The GI50 (LOX IMVI) was 5.37 µM (inactive), the GI50 (XF498) was 2.26 µM (inactive) and the GI50 (K562) was 5.61 µM (inactive). For the same compound, the GI50 (SNB-19) was 8.3 µM (inactive), the GI50 (T47D) was 2.03 µM (inactive) and the GI50 (SK-MEL-2) was 15.3 µM (inactive). For the same compound, the GI50 (NCI-H460) was 0.0281 µM (active), the GI50 (HCT-116) was 15.2 µM (inactive) and the GI50 (UACC-62) was 1.47 µM (inactive). The GI50 (HOP-62) was 1.75 µM (inactive), the GI50 (PC-3) was 10.3 µM (inactive) and the GI50 (SK-MEL-5) was 9.68 µM (inactive). The GI50 (SR) was 1.32 µM (inactive) and the GI50 (SW-620) was 8.57 µM (inactive).
